Reference: ChEMBL document CHEMBL1201862, “PubChem BioAssay data set” (2004)
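Five compound concentrations were applied to cells in 96-well plates for 48 hours; endpoints were derived by simple linear interpolation of the resulting dose-response curve. GI50: concentration for 50% inhibition of growth.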 Active and inactive are the calls of the source. No stated cut-off is given here; in the data, active = GI50 up to about 1.1 µM and inactive = higher.

Legend:
Experiment in all cases: NCI anticancer screen, dose series, 48 h
[1] = system: SF-539
[2] = system: MCF7
[3] = system: UACC-62
[4] = system: LOX IMVI
[5] = system: M19-MEL
[6] = system: CCRF-CEM
[7] = system: XF498
[8] = system: DLD-1
[9] = system: SK-MEL-28
[10] = system: NCI-H226
[11] = system: CAKI-1
[12] = system: SK-MEL-5
[13] = system: HCC 2998
[14] = system: NCI/ADR-RES
[15] = system: DMS-114
[16] = system: Hs-578T
[17] = system: TK-10
[18] = system: DU-145
[19] = system: SR

Measured: GI50

CCN1CCCC(NCc2c3ccccc3c(CNC3CCCN(CC)C3)c3ccccc23)C1 (centres undefined)
inactive: [1] 14.9 µM | [2] 2.86 µM | [3] 12.9 µM | [4] 6.37 µM | [5] 7.45 µM | [6] 3.34 µM | [7] 20.5 µM | [8] 12.8 µM | [9] 11.8 µM | [10] 13.4 µM | [11] 16.1 µM | [12] 14.1 µM | [13] 13.1 µM | [14] 25 µM | [15] 4.99 µM

CCCCS(=N)(=O)CC[C@H](N)C(=O)O (some centres undefined) [BUTHIONINE SULFOXIME]
inactive: [1] 4910 µM | [16] > 2810 µM | [17] > 5000 µM | [2] > 4190 µM | [3] > 5000 µM | [4] 237 µM | [5] > 5000 µM | [6] 1040 µM | [7] 476 µM | [8] > 5000 µM | [9] > 5000 µM | [10] > 5000 µM | [11] 3400 µM | [12] > 5000 µM | [13] > 5000 µM | [14] 2840 µM | [18] > 5000 µM | [15] > 5000 µM | [19] 286 µM

CCCCCCCCCCCCCCCCSCC(COC)COP(=O)([O-])OCC[N+](C)(C)C (centres undefined) [ILMOFOSINE]
inactive: [1] 16.1 µM | [2] 13.2 µM | [3] 4.92 µM | [4] 5.41 µM | [5] 2.79 µM | [6] 2.9 µM | [7] 6.3 µM | [8] 3.03 µM | [9] 15.5 µM | [10] 3.72 µM | [11] 3.52 µM | [12] 12.7 µM | [13] 1.52 µM | [14] 16.5 µM | [15] 7.5 µM
